{
  "source": "PubChem BioAssay (NCI)",
  "test_in_all_cases": "inhibition of tumour cell growth, NCI panel, 48 h",
  "key": {"NCI/ADR-RES ovarian": {"tested_on": "NCI/ADR-RES ovarian"}, "SF-295 CNS": {"tested_on": "SF-295 CNS"}, "786-0 renal": {"tested_on": "786-0 renal"}, "M14 melanoma": {"tested_on": "M14 melanoma"}, "SNB-75 CNS": {"tested_on": "SNB-75 CNS"}, "A549 NSCLC": {"tested_on": "A549 NSCLC"}, "OVCAR-8 ovarian": {"tested_on": "OVCAR-8 ovarian"}, "MALME-3M melanoma": {"tested_on": "MALME-3M melanoma"}, "ACHN renal": {"tested_on": "ACHN renal"}, "OVCAR-3 ovarian": {"tested_on": "OVCAR-3 ovarian"}, "OVCAR-4 ovarian": {"tested_on": "OVCAR-4 ovarian"}, "TK-10 renal": {"tested_on": "TK-10 renal"}, "MDA-MB-231 breast": {"tested_on": "MDA-MB-231 breast"}, "UO-31 renal": {"tested_on": "UO-31 renal"}, "NCI-H522 lung": {"tested_on": "NCI-H522 lung"}, "MDA-N": {"tested_on": "MDA-N"}, "SN12C renal": {"tested_on": "SN12C renal"}, "BT-549 breast": {"tested_on": "BT-549 breast"}, "SK-MEL-5 melanoma": {"tested_on": "SK-MEL-5 melanoma"}, "UACC-62 melanoma": {"tested_on": "UACC-62 melanoma"}, "U251 CNS": {"tested_on": "U251 CNS"}, "UACC-257 melanoma": {"tested_on": "UACC-257 melanoma"}, "K-562 leukemia": {"tested_on": "K-562 leukemia"}, "SR leukemia": {"tested_on": "SR leukemia"}, "EKVX NSCLC": {"tested_on": "EKVX NSCLC"}, "DU-145 prostate": {"tested_on": "DU-145 prostate"}, "MDA-MB-435": {"tested_on": "MDA-MB-435"}, "MCF7 breast": {"tested_on": "MCF7 breast"}, "SF-539 CNS": {"tested_on": "SF-539 CNS"}, "HT29 colon": {"tested_on": "HT29 colon"}, "SNB-19 CNS": {"tested_on": "SNB-19 CNS"}, "HOP-92 NSCLC": {"tested_on": "HOP-92 NSCLC"}, "HOP-62 NSCLC": {"tested_on": "HOP-62 NSCLC"}, "NCI-H460 lung": {"tested_on": "NCI-H460 lung"}, "NCI-H226 lung": {"tested_on": "NCI-H226 lung"}, "HL-60(TB) leukemia": {"tested_on": "HL-60(TB) leukemia"}, "IGROV1 ovarian": {"tested_on": "IGROV1 ovarian"}, "OVCAR-5 ovarian": {"tested_on": "OVCAR-5 ovarian"}, "SK-MEL-2 melanoma": {"tested_on": "SK-MEL-2 melanoma"}, "A498 renal": {"tested_on": "A498 renal"}, "SF-268 CNS": {"tested_on": "SF-268 CNS"}, "SW-620 colon": {"tested_on": "SW-620 colon"}, "CCRF-CEM leukemia": {"tested_on": "CCRF-CEM leukemia"}, "LOX IMVI melanoma": {"tested_on": "LOX IMVI melanoma"}, "T-47D breast": {"tested_on": "T-47D breast"}, "RPMI-8226 leukemia": {"tested_on": "RPMI-8226 leukemia"}, "HS 578T breast": {"tested_on": "HS 578T breast"}, "COLO 205 colon": {"tested_on": "COLO 205 colon"}, "PC-3 prostate": {"tested_on": "PC-3 prostate"}, "RXF 393 renal": {"tested_on": "RXF 393 renal"}, "SK-MEL-28 melanoma": {"tested_on": "SK-MEL-28 melanoma"}, "SK-OV-3 ovarian": {"tested_on": "SK-OV-3 ovarian"}, "MOLT-4 leukemia": {"tested_on": "MOLT-4 leukemia"}, "KM12 colon": {"tested_on": "KM12 colon"}, "HCT-15 colon": {"tested_on": "HCT-15 colon"}, "CAKI-1 renal": {"tested_on": "CAKI-1 renal"}, "HCT-116 colon": {"tested_on": "HCT-116 colon"}},
  "note": "Several values for one entry are separate records, joined by “and”; a condition that tells them apart may be missing. Equal values may be shown once.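 Tested at 5 concentrations; 48 h exposure; 96-well plates; endpoints linearly interpolated, else capped at highest concentration. Abbreviation: GI50, concentration required for 50% inhibition of growth. TGI: total growth inhibition.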",
  "data": [
    {"smiles": "COc1nc2ncc([C@@H](OC(C)=O)[C@@H](COC(C)=O)OC(C)=O)nc2c(=O)[nH]1", "values": [
      {"measurement": "TGI", "setting": "NCI/ADR-RES ovarian", "value": "> 100", "unit": "µM"},
      {"measurement": "TGI", "setting": "SF-295 CNS", "value": "> 100", "unit": "µM"},
      {"measurement": "TGI", "setting": "786-0 renal", "value": "> 100", "unit": "µM"},
      {"measurement": "TGI", "setting": "M14 melanoma", "value": "> 100", "unit": "µM"},
      {"measurement": "GI50", "setting": "SNB-75 CNS", "value": "> 100 µM and 11.3 µM"},
      {"measurement": "TGI", "setting": "SNB-75 CNS", "value": "> 100", "unit": "µM"},
      {"measurement": "TGI", "setting": "A549 NSCLC", "value": "> 100", "unit": "µM"},
      {"measurement": "TGI", "setting": "OVCAR-8 ovarian", "value": "> 100", "unit": "µM"},
      {"measurement": "TGI", "setting": "MALME-3M melanoma", "value": "> 100", "unit": "µM"},
      {"measurement": "TGI", "setting": "ACHN renal", "value": "> 100", "unit": "µM"},
      {"measurement": "TGI", "setting": "OVCAR-3 ovarian", "value": "> 100", "unit": "µM"},
      {"measurement": "TGI", "setting": "OVCAR-4 ovarian", "value": "> 100", "unit": "µM"},
      {"measurement": "TGI", "setting": "TK-10 renal", "value": "> 100", "unit": "µM"},
      {"measurement": "TGI", "setting": "MDA-MB-231 breast", "value": "> 100", "unit": "µM"},
      {"measurement": "TGI", "setting": "UO-31 renal", "value": "> 100", "unit": "µM"},
      {"measurement": "GI50", "setting": "NCI-H522 lung", "value": "> 100 µM and 41.7 µM"},
      {"measurement": "TGI", "setting": "NCI-H522 lung", "value": "> 100", "unit": "µM"},
      {"measurement": "TGI", "setting": "MDA-N", "value": "> 100", "unit": "µM"},
      {"measurement": "TGI", "setting": "SN12C renal", "value": "> 100", "unit": "µM"},
      {"measurement": "TGI", "setting": "BT-549 breast", "value": "> 100", "unit": "µM"},
      {"measurement": "TGI", "setting": "SK-MEL-5 melanoma", "value": "> 100", "unit": "µM"},
      {"measurement": "TGI", "setting": "UACC-62 melanoma", "value": "> 100", "unit": "µM"},
      {"measurement": "TGI", "setting": "U251 CNS", "value": "> 100", "unit": "µM"},
      {"measurement": "TGI", "setting": "UACC-257 melanoma", "value": "> 100", "unit": "µM"},
      {"measurement": "TGI", "setting": "K-562 leukemia", "value": "> 100", "unit": "µM"},
      {"measurement": "GI50", "setting": "SR leukemia", "value": "> 100 µM and 39.4 µM"},
      {"measurement": "TGI", "setting": "SR leukemia", "value": "> 100", "unit": "µM"},
      {"measurement": "TGI", "setting": "EKVX NSCLC", "value": "> 100", "unit": "µM"},
      {"measurement": "TGI", "setting": "DU-145 prostate", "value": "> 100", "unit": "µM"},
      {"measurement": "TGI", "setting": "MDA-MB-435", "value": "> 100", "unit": "µM"},
      {"measurement": "TGI", "setting": "MCF7 breast", "value": "> 100", "unit": "µM"},
      {"measurement": "TGI", "setting": "SF-539 CNS", "value": "> 100", "unit": "µM"},
      {"measurement": "TGI", "setting": "HT29 colon", "value": "> 100", "unit": "µM"},
      {"measurement": "TGI", "setting": "SNB-19 CNS", "value": "> 100", "unit": "µM"},
      {"measurement": "GI50", "setting": "HOP-92 NSCLC", "value": "> 100 µM and 32.8 µM"},
      {"measurement": "TGI", "setting": "HOP-92 NSCLC", "value": "> 100", "unit": "µM"},
      {"measurement": "TGI", "setting": "HOP-62 NSCLC", "value": "> 100", "unit": "µM"},
      {"measurement": "TGI", "setting": "NCI-H460 lung", "value": "> 100", "unit": "µM"},
      {"measurement": "TGI", "setting": "NCI-H226 lung", "value": "> 100", "unit": "µM"},
      {"measurement": "TGI", "setting": "HL-60(TB) leukemia", "value": "> 100", "unit": "µM"},
      {"measurement": "TGI", "setting": "IGROV1 ovarian", "value": "> 100", "unit": "µM"},
      {"measurement": "TGI", "setting": "OVCAR-5 ovarian", "value": "> 100", "unit": "µM"},
      {"measurement": "TGI", "setting": "SK-MEL-2 melanoma", "value": "> 100", "unit": "µM"},
      {"measurement": "TGI", "setting": "A498 renal", "value": "> 100", "unit": "µM"},
      {"measurement": "TGI", "setting": "SF-268 CNS", "value": "> 100", "unit": "µM"},
      {"measurement": "TGI", "setting": "SW-620 colon", "value": "> 100", "unit": "µM"},
      {"measurement": "TGI", "setting": "CCRF-CEM leukemia", "value": "> 100", "unit": "µM"},
      {"measurement": "TGI", "setting": "LOX IMVI melanoma", "value": "> 100", "unit": "µM"},
      {"measurement": "TGI", "setting": "T-47D breast", "value": "> 100", "unit": "µM"},
      {"measurement": "TGI", "setting": "RPMI-8226 leukemia", "value": "> 100", "unit": "µM"},
      {"measurement": "TGI", "setting": "HS 578T breast", "value": "> 100", "unit": "µM"},
      {"measurement": "TGI", "setting": "COLO 205 colon", "value": "> 100", "unit": "µM"},
      {"measurement": "TGI", "setting": "PC-3 prostate", "value": "> 100", "unit": "µM"},
      {"measurement": "TGI", "setting": "RXF 393 renal", "value": "> 100", "unit": "µM"},
      {"measurement": "TGI", "setting": "SK-MEL-28 melanoma", "value": "> 100", "unit": "µM"},
      {"measurement": "TGI", "setting": "SK-OV-3 ovarian", "value": "> 100", "unit": "µM"},
      {"measurement": "GI50", "setting": "MOLT-4 leukemia", "value": "> 100 µM and 49.9 µM"},
      {"measurement": "TGI", "setting": "MOLT-4 leukemia", "value": "> 100", "unit": "µM"},
      {"measurement": "TGI", "setting": "KM12 colon", "value": "> 100", "unit": "µM"},
      {"measurement": "TGI", "setting": "HCT-15 colon", "value": "> 100", "unit": "µM"},
      {"measurement": "TGI", "setting": "CAKI-1 renal", "value": "> 100", "unit": "µM"},
      {"measurement": "TGI", "setting": "HCT-116 colon", "value": "> 100", "unit": "µM"}
    ]}
  ]
}
